pIC50: −log10 of the molar value. Read-outs that look alike come from different tables or passages of the source. Marks after values point to notes of the source that are not given here. One block for each molecule: values may come before it.
Legend:
[1] = test system: Ba-L strain of HIV-1; test: Anti-HIV-1 potency in macrophage assay (p24 ELISA); assay type: cell-based, HIV-1 in human monocyte/macrophages; details: for pIC50: Human immunodeficiency virus 1, BAL, Macrophage
Method: (§1) Evaluation of Prodrug Anti-HIV-1 Potency in Macrophage Assay. The anti HIV-1 evaluation of the carriers and their conjugates was performed in 6-day old monocyte/macrophages at Southern Research Institute, Frederick, Md. Briefly, peripheral blood monocytes were isolated from normal HIV-1 negative donors by plastic adherence following ficoll hypaque purification of the buffy coats. The monocytes were then cultured for 6 days to a macrophage-like phenotype. The test compounds were serially diluted and added to the cultures followed by the addition of a pretitered amount of the Ba-L strain of HIV-1 obtained from the NIAID AIDS Research and Reference Reagent Repository. Cultures were washed by media removal 24 hours post infection, fresh compound added and the cultures continued for an additional 6 days. HIV p24 antigen content to assess virus replication was measured by p24 ELISA assay. AZT and ddc were used as positive control compounds and run in parallel with each determination. […] At assay termination, the assay plates were stained with the tetrazolium based dye MTS to determine cell viability and quantify compound toxicity. Using a computer program at Southern Research Institute, IC50 (50% inhibition of virus replication), TC50 (50% cytotoxicity) and a therapeutic index (TI, […]) were obtained.

[2] = Toxicity on replicate uninfected macrophage plates (MTS cell viability); assay type: cell-based, human; details: human, uninfected macrophages, MTS, read-out: TC50 (50% cytotoxicity)
Method: as §1

[3] = test system: monocyte/macrophages; test: as above; assay type: cell-based, human; details: Southern Research Institute tests, TABLES 7-9
Method: as §1

[4] = test system: Friends Leukemia Virus (FLV); test: Anti-retroviral potency in a murine model (FLV-infected mice, spleen and body weight); assay type: in vivo, Swiss mice; details: for Average Final Weight / Average Weight Change / Average Spleen Weight: FLV-infected four-week old Swiss mice, 300 nanomoles on days 5-9, sacrificed day 12; for Average Spleen Weight: p < 0.01 for MTLJ-1-Foscarnet; for weight gain: FLV-infected mice, treated group
Method: (§2) Evaluation Foscarnet Prodrug Anti-Retroviral Potency in a Murine Model. The effect of prodrug MTLJ-1-Foscarnet on four-week old Swiss mice infected with Friends Leukemia Virus (FLV) was tested by the Luminide Pharmaceutical Corporation. The mice were infected with FLV by an IP injection with 0.5 ml viral solution prepared by resuspending F4-6 cells (1×10^6 cells/ml) in fresh media and harvesting that media 24 hr later and filtering through a […] filter. The Foscarnet Group received 300 nanomoles of Foscarnet on days 5-9. The Carrier Group received 300 nanomoles of carrier on days 5-9. The MTLJ-1-Foscarnet Group received 300 nanomoles of MTLJ-1-Foscarnet on days 5-9. All mice were sacrificed on day 12. The spleens were removed and weighed. The toxicity of the carrier MTLJ-1 was also evaluated by the determination of its LD50.

[5] = Acute toxicity, determination of LD50; assay type: in vivo
Method: as §2

[6] = TABLE 8 (6a carrier and ddc prodrug, Southern Research Institute), HIV-1 Ba-L, human macrophages, p24 antigen, read-out: IC50 (50% inhibition of virus replication)
[7] = TABLE 10, Southern Research Institute under NIH contract, HIV-1 in human macrophages, read-out: IC50
[8] = TABLE 10, Southern Research Institute under NIH contract
[9] = TABLE 9 (6a carrier and Foscarnet prodrug, Southern Research Institute), HIV-1 Ba-L, human macrophages, p24 antigen, read-out: IC50 (50% inhibition of virus replication)
[10] = TABLE 9 (6a carrier and Foscarnet prodrug)
[11] = TABLE 7 (negative control carrier test, Southern Research Institute), HIV-1 Ba-L, human macrophages, p24 antigen, read-out: IC50 (50% inhibition of virus replication)
[12] = TABLE 7 (negative control carrier test)

pIC50 [1, 6]: 7.15
pIC50 [1, 7]: 7.40
SMILES: Nc1ccn([C@H]2CC[C@@H](CO)O2)c(=O)n1 [ddc, dideoxycytidine, reference compound]
TI (TC50/IC50) [1]: >2,500

pIC50 [1, 7]: 4.64
SMILES: CCN(c1ccc(/C(=C/C=C/C(=C2C=CC(=[N+](CC)c3ccc4c(=O)[nH][nH]c(=O)c4c3)C=C2)c2ccccc2)c2ccccc2)cc1)c1ccc2c(=O)[nH][nH]c(=O)c2c1 [GZW1-98-2]
TI (TC50/IC50) [1, 8]: >4.3

pIC50 [1, 6]: < 4.00
pIC50 [1, 9]: 4.64
pIC50 [1, 7]: 5.58
SMILES: CCN(c1ccc(/C(=C/C=C/C(=C2C=CC(=[N+](CC)c3ccc4c(=O)[nH][nH]c(=O)c4c3)C=C2)c2ccc(N(C)C)cc2)c2ccc(N(C)C)cc2)cc1)c1ccc2c(=O)[nH][nH]c(=O)c2c1 [6a]
TI (TC50/IC50) [1, 10]: >4.48
TI (TC50/IC50) [1, 8]: >38.2
CC50 at 7 days ([2]; TABLE 8 (6a carrier and ddc prodrug)): > 100 µM
CC50 at 7 days [2, 10]: > 104 µM
Toxicity in macrophage assay (in words) [3]: nontoxic

SMILES: O=C([O-])P(=O)([O-])[O-].[Na+].[Na+].[Na+] [Foscarnet, phosphonoformate, reference compound]
pIC50 [1, 11]: 6.26
pIC50 [1, 9]: 5.74
TI (TC50/IC50) [1, 12]: >18
TI (TC50/IC50) [1, 10]: >182.08
CC50 at 7 days [2, 12]: > 10 µM
CC50 at 7 days [2, 10]: > 333 µM
Average Final Weight [4]: 18.9 g
Average Weight Change [4]: +1.5 g
Average Spleen Weight [4]: 0.1727 g
weight gain [4]: 1.5 grams

pIC50 [1, 11]: < 5.00
SMILES: CCCCc1ccc(C(/C=C/C=C(\c2ccc(CCCC)cc2)c2ccc(OCCN(CC)c3ccc4c(=O)[nH][nH]c(=O)c4c3)cc2)=C2C=CC(=[O+]CCN(CC)c3ccc4c(=O)[nH][nH]c(=O)c4c3)C=C2)cc1 [YY99811-1]
CC50 at 7 days [2, 12]: > 10 µM
Toxicity in macrophage assay (in words) [3]: nontoxic

pIC50 [1, 7]: 4.72
SMILES: CCN(c1ccc(/C(=C/C=C/C=C2C=CC(=[N+](C)C)C=C2)c2ccc(N(C)C)cc2)cc1)c1ccc2c(=O)[nH][nH]c(=O)c2c1 [GZW2-33-1]
TI (TC50/IC50) [1, 8]: >5.3

SMILES: CCCC(NCCN(CC)c1ccc(/C(=C/C=C/C(OP(=O)(O)C(=O)O)(c2ccc(N(C)C)cc2)c2ccc(N(CC)CCNC(CCC)N(CC)c3ccc4c(=O)[nH][nH]c(=O)c4c3)cc2)c2ccc(N(C)C)cc2)cc1)N(CC)c1ccc2c(=O)[nH][nH]c(=O)c2c1 (stereo not drawn) [MTLJ-1-Foscarnet]
Spleen weights compared with control groups (in words) ([4]; FLV-infected Swiss mice): the same as those of the No Virus, No Treatment Group
Suppression of FLV infection in mice (in words) ([4]; FLV-infected Swiss mice, significance level of 0.01, Students T test): highly effective
Average Final Weight [4]: 22.4 g
Average Weight Change [4]: +2.5 g
Average Spleen Weight [4]: 0.0914^a g
weight gain [4]: 2.5 grams
Toxicity in vivo (in words) ([5]; from LD50 and weight gain): nontoxic
LD50 ([5]; mouse, in vivo, ip): > 1250 mg/kg
